US7084140B2, “Arylglycinamide derivatives, method of producing said derivatives and pharmaceutical compositions containing these compounds” (Boehringer Ingelheim Pharma GmbH & Co. KG, priority 1996, dated 2006)
Structures can show the parent of a compound that is named as a salt.

Columns and labels:
[1] = target: T1, NK1-receptor (substance P-receptor) (Homo sapiens, UniProt P25103); experiment: Receptor affinity for the NK1-receptor, displacement of 125I-labelled substance P on IM-9 cells; type: binding; settings: human lymphoblastoma cells (IM-9) with cloned NK1-receptors
T1 construct: expressed in transfected cells; host or cells: IM-9 human lymphoblastoma cells
Description: The receptor affinity for the NK1-receptor (substance P-receptor) is determined on human lymphoblastoma cells (IM-9) with cloned NK1-receptors, by measuring the displacement of ^125I-labelled substance P. The K1-values thus obtained show the efficacy of the compounds: […]

[2] = target: T2, NK1 (Cavia porcellus, UniProt P30547); experiment: Inhibition of lowering of blood pressure caused by NK1 in anaesthetised guinea pigs; type: in vivo; settings: 1 mg/kg administered into the duodenum, NK1-agonist [βAla4, Sar9, Met(O2)11]SP(4-11) 0.2 μmol/kg i.v.
T2 construct: from tissue; host or cells: whole animal (anaesthetised guinea pig)
Description: Inhibition of lowering of blood pressure caused by NK1 in anaesthetised guinea pigs.
Guinea pigs weighing 300–500 grams were anaesthetised with pentobarbital (50 mg/kg i.p.), intubated and artificially ventilated. They were ventilated with 10 ml/kg of air at a frequency of 60 breaths per minute. The carotid artery was canulated and the arterial blood pressure was recorded. A polyethylene tube was inserted into the jugular vein for the intravenous supply of substances.
A temporary reduction in blood pressure was brought about at intervals of 10 minutes by intravenous administration of the NK1-agonist [βAla^4, Sar^9, Met (O2)^11]Sp(4-11)
[drawing 30] in a dose of 0.2 μmol/kg. After the blood pressure thus produced had been measured, the test compound was introduced into the duodenum and the NK1-agonist was again injected every 10 minutes.
The results were expressed as a % inhibition of the reduction in blood pressure caused by the NK1-agonist specified.

T1 sequence (P25103 whole entry): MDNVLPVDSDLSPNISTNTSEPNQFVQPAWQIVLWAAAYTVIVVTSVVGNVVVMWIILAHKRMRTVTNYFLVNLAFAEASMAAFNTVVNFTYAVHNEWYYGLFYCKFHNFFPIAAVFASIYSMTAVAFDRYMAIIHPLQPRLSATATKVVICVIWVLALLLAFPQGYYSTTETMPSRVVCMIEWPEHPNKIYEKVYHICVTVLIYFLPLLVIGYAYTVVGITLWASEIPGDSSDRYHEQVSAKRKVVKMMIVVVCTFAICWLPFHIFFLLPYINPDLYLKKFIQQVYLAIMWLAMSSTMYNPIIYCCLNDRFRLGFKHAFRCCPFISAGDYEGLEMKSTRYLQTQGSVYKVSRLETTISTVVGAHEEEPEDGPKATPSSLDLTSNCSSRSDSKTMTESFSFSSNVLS
T2 sequence (P30547 whole entry): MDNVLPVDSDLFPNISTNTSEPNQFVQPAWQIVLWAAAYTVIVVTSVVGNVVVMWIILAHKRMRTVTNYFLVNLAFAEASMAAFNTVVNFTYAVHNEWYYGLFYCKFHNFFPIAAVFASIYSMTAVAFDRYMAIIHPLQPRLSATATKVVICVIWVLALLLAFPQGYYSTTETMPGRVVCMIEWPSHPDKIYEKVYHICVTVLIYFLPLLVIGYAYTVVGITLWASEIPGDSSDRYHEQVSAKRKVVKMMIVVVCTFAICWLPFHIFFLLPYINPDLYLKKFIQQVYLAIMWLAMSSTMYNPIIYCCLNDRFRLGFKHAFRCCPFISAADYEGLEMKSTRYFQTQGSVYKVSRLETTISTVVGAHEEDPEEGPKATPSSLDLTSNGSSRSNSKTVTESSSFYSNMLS

With CN(CCc1cc(C(F)(F)F)cc(C(F)(F)F)c1)C(=O)C(c1ccccc1)N1CCN(CC(=O)N2CCCC2)CC1 (stereo not drawn) [Example 11] the Ki [1] was 3.8 nM.

CN(CCc1cc(C(F)(F)F)cc(C(F)(F)F)c1)C(=O)C(c1ccccc1)N1CCC(N(C)CCO)CC1 (stereo not drawn) [Example 16] showed a Ki [1] of 0.9 nM.

For C#CCN1CCN(C(C(=O)N(C)CCc2cc(C(F)(F)F)cc(C(F)(F)F)c2)c2ccccc2)CC1 (stereo not drawn) [Example 25], the Ki [1] was 6 nM.

CC(C)N1CCN(C(C(=O)N(C)CCc2cc(C(F)(F)F)cc(C(F)(F)F)c2)c2cccc3c2OCO3)CC1 (stereo not drawn) [Example 73] gave a Ki [1] of 2 nM.

CN(CCc1cc(C(F)(F)F)cc(C(F)(F)F)c1)C(=O)C(c1ccccc1)N1CCC(N(C)CCCCO)CC1 (stereo not drawn) [Example 76] gave a Ki [1] of 2 nM.

In the case of CC(C)N1CCN(C(C(=O)N(C)CCc2cc(C(F)(F)F)cc(C(F)(F)F)c2)c2ccccc2)CC1 (stereo not drawn) [Example 74], the Ki [1] is reported as 1.5 nM.

In the case of COCCN1CCN(C(C(=O)N(C)CCc2cc(C(F)(F)F)cc(C(F)(F)F)c2)c2ccccc2)CC1 (stereo not drawn) [Example 30], the Ki [1] is reported as 1.8 nM.

Work on CC(C)N1CCN(C(C(=O)NC(C)(C)Cc2cc(C(F)(F)F)cc(C(F)(F)F)c2)c2ccccc2)CC1 (stereo not drawn) [Example 33] yielded a Ki [1] of 7.4 nM.

Work on CN(CCc1cc(C(F)(F)F)cc(C(F)(F)F)c1)C(=O)C(c1ccccc1)N1CCC(N(CCO)CCO)CC1 (stereo not drawn) [Example 55] yielded a Ki [1] of 1.25 nM.

Compound CN(CCc1cc(C(F)(F)F)cc(C(F)(F)F)c1)C(=O)C(c1ccccc1)N1CCC(N(C)C)CC1 (stereo not drawn) [Example 5] has a Ki [1] of 1.5 nM.

In the case of CN(CCc1cc(C(F)(F)F)cc(C(F)(F)F)c1)C(=O)C(c1ccccc1)N1CCC(N2CCN(CC(N)=O)CC2)CC1 (stereo not drawn) [Example 12], the Ki [1] is reported as 5 nM.

In the case of CCN(CC)C1CCN(C(C(=O)N(C)CCc2cc(C(F)(F)F)cc(C(F)(F)F)c2)c2ccccc2)CC1 (stereo not drawn) [Example 15], the Ki [1] is reported as 0.98 nM.

CN1CCN(C2CCN(C(C(=O)N(C)CCc3cc(C(F)(F)F)cc(C(F)(F)F)c3)c3ccccc3)CC2)CC1 (stereo not drawn) [Example 8] showed a Ki [1] of 1.8 nM.

Work on CN1CCCN(C(C(=O)N(C)CCc2cc(C(F)(F)F)cc(C(F)(F)F)c2)c2ccccc2)CC1 (stereo not drawn) [Example 4] yielded a Ki [1] of 1.4 nM.

Compound CN(CCc1cc(C(F)(F)F)cc(C(F)(F)F)c1)C(=O)C(c1ccccc1)N1CCC(O)CC1 (stereo not drawn) [Example 22] has a Ki [1] of 2.2 nM.

CC(C)N1CCN(C(C(=O)N(C)CCc2cc(C(F)(F)F)cc(C(F)(F)F)c2)c2ccccc2)CC1=O (stereo not drawn) [Example 32] showed a Ki [1] of 1.3 nM.

CN(CCc1cc(C(F)(F)F)cc(C(F)(F)F)c1)C(=O)C(c1ccccc1)N1CCC(N)CC1 (stereo not drawn) [Example 17] was tested, and the Ki [1] was 7.75 nM.

CC(C)N1CCN(C(C(=O)N(C)CCc2cc(C(F)(F)F)cc(C(F)(F)F)c2)c2ccccc2)CC1 (racemic) [Example 1, (R,S)-1-i-propyl-4-[2-phenylacetic acid-N-methyl-N-(3,5-bistrifluoromethylphenylethyl)]-amide dihydrochloride] was tested, and the Ki [1] was 1.2 nM and the “% inhibition of the reduction in blood pressure caused by the NK1-agonist” value [2] was 80%.

COc1ccc(C(C(=O)N(C)CCc2cc(C(F)(F)F)cc(C(F)(F)F)c2)N2CCNCC2)cc1OC (stereo not drawn) [Example 47] gave a Ki [1] of 1.7 nM.

Work on CN(CCc1cc(C(F)(F)F)cc(C(F)(F)F)c1)C(=O)[C@H](c1ccccc1)N1CCNCC1 [Example 75] yielded a Ki [1] of 0.44 nM.

In the case of CN1CCC(N2CCN(C(C(=O)N(C)CCc3cc(C(F)(F)F)cc(C(F)(F)F)c3)c3ccccc3)CC2)CC1 (stereo not drawn) [Example 9], the Ki [1] is reported as 2.5 nM.

Compound CN(CCc1cc(C(F)(F)F)cc(C(F)(F)F)c1)C(=O)C(c1ccccc1)N1CCN(c2ncccn2)CC1 (stereo not drawn) [Example 3] has a Ki [1] of 19 nM.

Compound CN(CCc1cc(C(F)(F)F)cc(C(F)(F)F)c1)C(=O)C(c1ccccc1)N1CCNCC1 (stereo not drawn) [Example 2] has a Ki [1] of 1 nM.

Compound CC(C)NC1CCN(C(C(=O)N(C)CCc2cc(C(F)(F)F)cc(C(F)(F)F)c2)c2ccccc2)CC1 (stereo not drawn) [Example 20] has a Ki [1] of 2 nM.

Compound CNC1CCN(C(C(=O)N(C)CCc2cc(C(F)(F)F)cc(C(F)(F)F)c2)c2ccccc2)CC1 (stereo not drawn) [Example 18] has a Ki [1] of 0.96 nM.

CN1CCN(C(C(=O)N(C)CCc2cc(C(F)(F)F)cc(C(F)(F)F)c2)c2ccccc2)CC1 (stereo not drawn) [Example 64] gave a Ki [1] of 1.1 nM.

For C=CCN1CCN(C(C(=O)N(C)CCc2cc(C(F)(F)F)cc(C(F)(F)F)c2)c2ccccc2)CC1 (stereo not drawn) [Example 24], the Ki [1] was 2.2 nM.

For CN(CCc1cc(C(F)(F)F)cc(C(F)(F)F)c1)C(=O)C(c1ccccc1)N1CCC(N2CCC(N3CCCCC3)CC2)CC1 (stereo not drawn) [Example 13], the Ki [1] was 2.4 nM.

CCCN1CCN(C(C(=O)N(C)CCc2cc(C(F)(F)F)cc(C(F)(F)F)c2)c2ccccc2)CC1 (stereo not drawn) [Example 63] gave a Ki [1] of 1.4 nM.

For CN(C)CCN1CCN(C(C(=O)N(C)CCc2cc(C(F)(F)F)cc(C(F)(F)F)c2)c2ccccc2)CC1 (stereo not drawn) [Example 28], the Ki [1] was 1.3 nM.

For CN(CCc1cc(C(F)(F)F)cc(C(F)(F)F)c1)C(=O)C(c1ccccc1)N1CCC(NCC(=O)N2CCOCC2)CC1 (stereo not drawn) [Example 23], the Ki [1] was 2.5 nM.

Compound CN(CCc1cc(C(F)(F)F)cc(C(F)(F)F)c1)C(=O)C(c1ccccc1)N1CCN(CCO)CC1 (stereo not drawn) [Example 26] has a Ki [1] of 1.6 nM.

With COc1ccc(C(C(=O)N(C)CCc2cc(C(F)(F)F)cc(C(F)(F)F)c2)N2CCN(C(C)C)CC2)cc1OC (stereo not drawn) [Example 65] the Ki [1] was 5.7 nM.

Compound CC(C)(Cc1cc(C(F)(F)F)cc(C(F)(F)F)c1)NC(=O)C(c1ccccc1)N1CCNCC1 (stereo not drawn) [Example 34] has a Ki [1] of 2.9 nM.

Compound CN(CCc1cc(C(F)(F)F)cc(C(F)(F)F)c1)C(=O)C(c1ccccc1)N1CCC(NC2CCCC2)CC1 (stereo not drawn) [Example 19] has a Ki [1] of 1.17 nM.
